Assays:
[1] = biological target: T1, human RORγt LBD (Homo sapiens, UniProt P51449); experiment: RORγt (LBD) Reporter Assay (GAL4 luciferase, HEK293T cells); assay type: cell-based; details: for IC50: compounds for 24 hours
T1 construct: expressed in transfected cells; host or cells: HEK293T
T1 sequence (P51449 258-518): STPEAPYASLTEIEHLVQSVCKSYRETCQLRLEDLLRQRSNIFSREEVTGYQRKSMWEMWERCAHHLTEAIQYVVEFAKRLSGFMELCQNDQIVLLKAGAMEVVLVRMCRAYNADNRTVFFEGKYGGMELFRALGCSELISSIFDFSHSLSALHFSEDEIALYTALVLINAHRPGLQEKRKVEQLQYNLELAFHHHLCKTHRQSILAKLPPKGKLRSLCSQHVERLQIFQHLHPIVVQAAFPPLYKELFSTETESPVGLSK
How it was run: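 HEK293T cells transiently co-transfected with GAL4 DBD–human RORγt LBD (pBIND, with renilla luciferase control) and GAL4-responsive firefly luciferase reporter, plated in phenol-red free DMEM with 5% lipid-reduced FCS. Compound exposure 24 h; firefly/renilla luminescence ratio plotted against compound concentration.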

[2] = biological target: T2, human RORγt ligand binding domain (RORγt LBD) (Homo sapiens, UniProt P51449); experiment: ThermoFluor® Assay (RORγt thermal shift binding); details: 0.065 mg/mL RORγt, 60 µM 1,8-ANS, pH 7.0; estimated from concentration response curves
T2 construct: His-tag (N); TurboTEV protease cleavage site (ENLYFQG) (N); made in house; host or cells: E. coli (pHIS1, modified pET vector)
T2 sequence (P51449 258-518): T1 sequence (P51449 258-518)
How it was run: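 Thermal shift of 0.065 mg/mL RORγt with 60 µM 1,8-ANS in 100 mM Hepes pH 7.0, 10 mM NaCl, 2.5 mM GSH, 0.002% Tween-20, heated at 1 °C/min; fluorescence at 500 nm. KD estimated from concentration-response of ΔTm.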

| inhibition at 6 µM ([1]; HEK-293T, 6 µM compound) [%] | IC50 [1] [nM] | Kd [2] [nM] | RORγt (LBD) Reporter Assay, % inhibition @ 6 µM ([1]; 6 µM compound, 6 µM) [%] | SMILES |
| --- | --- | --- | --- | --- |
| 100 | ~1000 | 69 |  | COc1nc2ccc(C(O)c3cnc(C)n3C)cc2c(Cl)c1Cc1ccc(C(F)(F)F)cc1 (single isomer, unassigned) [Example 15b, (4-Chloro-2-methoxy-3-(4-(trifluoromethyl)benzyl)quinolin-6-yl)(1,2-dimethyl-1H-imidazol-5-yl)methanol] |
|  | 80 | 40 | 101 | COc1nc2ccc(C(O)c3cnc(C)n3C)cc2c(Cl)c1Cc1ccc(C(F)(F)F)cc1 (single isomer, unassigned) [Example 15c, (4-Chloro-2-methoxy-3-(4-(trifluoromethyl)benzyl)quinolin-6-yl)(1,2-dimethyl-1H-imidazol-5-yl)methanol] |

From patent EP3057949B1, “SECONDARY ALCOHOL QUINOLINYL MODULATORS OF ROR GAMMA T” (Janssen Pharmaceutica NV, priority 2013, dated 2015)
